Laboratory results: patent US8962244B2, “Compounds for modulating RNA binding proteins and uses therefor” (University of Massachusetts, priority 2009, dated 2015)
“And” between values parts separate entries of the source, which are not always exact repeats. Equal values may be shown once.

Columns and labels:
MEX-3 = assay: Fluorescence polarization screening of MEX-3 binding to fluorescein-labeled SEQ 14 RNA; settings: 192 μM test compound; 80 nM MBP-MEX-3, no zinc acetate; lowest score = greatest inhibition
MEX-5 [1] = target: T1, MEX-5 (Caenorhabditis elegans, UniProt Q9XUB2); assay: Fluorescence polarization screening of MEX-5 binding to fluorescein-labeled TCR2 RNA; settings: for remaining activity at 192 µM: 192 μM test compound, score = polarization relative to no-drug and no-protein controls, 0.25 = 75% inhibition, lowest score = greatest inhibition, read-out: MEX-5 score; for IC50: further screening as described above (fluorescence polarization), dose response
T1 construct: The fragment of mex-5 containing the TZF domain (amino acids 236-350) was amplified; made in house; host or cells: Escherichia coli JM109
T1 sequence (Q9XUB2 236-350): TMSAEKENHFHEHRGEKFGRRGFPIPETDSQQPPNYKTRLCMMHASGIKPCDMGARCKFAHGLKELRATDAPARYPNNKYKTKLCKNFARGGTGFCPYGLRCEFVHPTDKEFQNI
Summary of the method: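 Fluorescence polarization of 2 nM 3′-fluorescein-labelled TCR2 RNA bound by 120 nM MBP-MEX-5 TZF domain (aa 236–350), at sub-saturating binding. Test compounds at 192 μM in 50 mM Tris-HCl pH 8.0, 100 mM NaCl, 0.01% IGEPAL, 0.01 mg/mL yeast tRNA, 100 μM Zn(OAc)2; no-protein and no-compound controls.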

POS-1 [2] = target: T2, POS-1 (Caenorhabditis elegans, UniProt G5EF15); assay: Fluorescence polarization screening of POS-1 binding to fluorescein-labeled BMF018 RNA; settings: for remaining activity at 192 µM: 192 μM test compound, score = polarization relative to no-drug and no-protein controls, 0.25 = 75% inhibition, lowest score = greatest inhibition, read-out: POS-1 score; for IC50: further screening as described above (fluorescence polarization), dose response
T2 construct: 6-his tag (N); made in house; host or cells: E. coli BL21 (DE3) Gold
T2 sequence (G5EF15 80-180): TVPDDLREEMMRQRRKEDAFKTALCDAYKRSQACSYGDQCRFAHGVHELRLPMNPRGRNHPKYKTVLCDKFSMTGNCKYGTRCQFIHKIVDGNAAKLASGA

POS-1 [3] = target: T2, POS-1; assay: Dose response gel shift assay, POS-1 with MEX-3 UTR fragment RNA; type: binding; settings: 120 nM POS-1, 2-3 nM fluorescein labeled MEX-3 UTR fragment RNA
Experimental: (§1) A further dose response assay was performed on select compounds of the invention as described below. A sub-saturating concentration of MEX-5 or POS-1 (120 nM) was equilibrated with limiting fluorescein labeled RNA (2-3 nM, TCR2 RNA or MEX-3 UTR fragment RNA respectively) in the presence of varying concentrations of compound. Following equilibration, the reactions were loaded onto a 5% slab polyacrylamide gel and subjected to electrophoresis for about 1 hour to separate protein-RNA complex from free RNA. The gel was scanned on a FUJI FLA-5000 imager, and the fraction of bound RNA determined by dividing the intensity of the bound RNA by the intensity of the bound RNA plus the free RNA. The […] was plotted as a function of compound concentration and fit to a sigmoidal dose response function in order to determine the IC50, the concentration that gives half maximal inhibition.

MEX-5 [4] = target: T1, MEX-5; assay: Dose response gel shift assay, MEX-5 with TCR2 RNA; type: binding; settings: 120 nM MEX-5, 2-3 nM fluorescein labeled TCR2 RNA
Experimental: as §1

[5] = system: Caenorhabditis elegans N2 strain worms; assay: C. elegans viability/sterility assay (gonad microinjection); type: in vivo
Experimental: Young adult worms with a single row of embryos were selected for microinjection. Each worm was mounted on a dried agarose padded coverslip in halocarbon oil. Varying concentrations of compound, or a DMSO control, were microinjected into each gonad arm of the worm using an inverted microscope with DIC optics. Injected worms were then allowed to recover for 2-3 hours at 15° C. Approximately 10-40 worms were injected per compound tested. Individual worms that survived microinjection were singled out onto new NGM agar plates and allowed to recover overnight at 15° C. The plates were moved to room temperature the next morning. At the end of the day, the adult worm was transferred to a new plate. The embryos laid on each plate were monitored for hatching and inspected for unusual phenotypes. Nematode fertility was estimated by counting the total number of progeny on both plates. Viability was estimated by monitoring the extent of hatching.

[6] = count per individual injected worm (Worm No. 1-6), Day 2

| Structure (SMILES) | MEX-3 score (MEX-3) | remaining activity at 192 µM (MEX-5 [1]) | remaining activity at 192 µM (POS-1 [2]) | IC50 (POS-1 [3]) | IC50 (POS-1 [2]) | IC50 (MEX-5 [4]) | IC50 (MEX-5 [1]) | Day 1 Hatchlings ([5]; count per individual injected worm (Worm No. 1-6), Day 1) | Day 2 Embryos [5, 6] | Day 2 Hatchlings [5, 6] | Day 1 Embryos ([5]; count per individual injected worm (Worm No. 1-6), unhatched embryos on plate, Day 1) | Effect on worm fertility ([5]; microinjection into each gonad arm, compared with DMSO controls) |
| --- | --- | --- | --- | --- | --- | --- | --- | --- | --- | --- | --- | --- |
| COc1nnc(-c2ccc(C)c(S(=O)(=O)NCC3CCCO3)c2)c2ccccc12 (stereo not drawn) [DD] | – | – | 7.5% | 260 µM | 300 µM | – | – | – | – | – | – | – |
| COc1ccc(S(=O)(=O)Nc2ccccc2NS(=O)(=O)c2ccc(OC)cc2)cc1 [E] | – | -1.07% | -1.62% | 0.17 µM | 0.32 µM | 2 µM | 1.5 µM | 11 and 34 and 2 and 6 and 4 and 67 | 0 | 0 | 1 and 0 (4×) and 2 | may sterilize worms at a stage prior to fertilization |
| Sc1nnc(COc2cccc3ccccc23)n1-c1ccccc1 [BO] | – | 19% | – | 33 µM | 16 µM | 120 µM | 75 µM | – | – | – | – | – |
| CCS(=O)(=O)Nc1ccccc1NS(=O)(=O)CC [BR] | – | 19.9% | – | 150 µM | 820 µM | 78 µM | 39 µM | – | – | – | – | – |

Now from value to compound, other results behind:

| MEX-3 score (MEX-3) | remaining activity at 192 µM (MEX-5 [1]) | remaining activity at 192 µM (POS-1 [2]) | IC50 (POS-1 [3]) | IC50 (POS-1 [2]) | IC50 (MEX-5 [4]) | IC50 (MEX-5 [1]) | Structure (SMILES) | Day 1 Hatchlings ([5]; count per individual injected worm (Worm No. 1-6), Day 1) | Day 2 Embryos [5, 6] | Day 2 Hatchlings [5, 6] | Day 1 Embryos ([5]; count per individual injected worm (Worm No. 1-6), unhatched embryos on plate, Day 1) | Effect on worm fertility ([5]; microinjection into each gonad arm, compared with DMSO controls) |
| --- | --- | --- | --- | --- | --- | --- | --- | --- | --- | --- | --- | --- |
| 0.1624 | 8.11% | 3.61% | – | – | – | – | O=C(O)c1ccc(NC(=S)NC(=O)c2ccc(I)cc2)cc1 [AE] | – | – | – | – | – |
| – | -2.09% | -2.48% | 5.1 µM | 7 µM | 9.5 µM | 33 µM | CC(=O)Oc1ccccc1-c1nc2s/c(=C3\C(=O)N(CC(N)=O)c4ccccc43)c(=O)n2n1 [C] | – | – | – | – | – |
